# Assay results reported in US5149714A, “Antidepressants” (Merrell Dow Pharmaceuticals Inc., priority 1990, dated 1992).
# Where two headings read alike, the source gives them in different places.
# System: β-adrenergic receptors
# Conditions: Desipramine 5 mg/kg, i.p.; for [^3 H]-DHA Specifically Bound: mean ± SEM, six animals per group
# Protocol: The number of β-adrenergic receptors in rat cerebral cortical membranes was measured after a 4 day and 14 day course of one of the following treatments:
# a) saline control (intraperitoneal injection--i.p.)
# c) fluoxetine (10 mg/kg/day, i.p.) or (10 mg/kg bid, i.p.)
# Male Sprague-Dawley rats (175-200 g) were assigned randomly to one of the four treatment groups above and were treated as indicated for either 4 or 14 days. The animals were sacrificed 24 hours after their last treatment and cerebral cortical membranes were isolated. These membranes were assayed for β-adrenergic receptor number by the method of Bylund and Snyder [Mol. Pharmacol. 12, 568 (1976)] by measuring the amount of [3H]dihydro-alprenolol ([^3 H]-DHA) bound.
smiles,measurement,setting,value
"CNCCC(Oc1ccc(C(F)(F)F)cc1)c1ccccc1 (stereo not shown) [Fluoxetine, fluoxetine]","[^3 H]-DHA Specifically Bound, % Control","A) 14 days, Fluoxetine 10 mg/kg",91 % Control
same,[^3 H]-DHA Specifically Bound,"A) 14 days, Fluoxetine 10 mg/kg, saline 41.8 ± 1.4, * p < 0.05 vs saline, + P < 0.05 vs Desipramine",37.9 ± 1.8 fmol/mg protein
same,"[^3 H]-DHA Specifically Bound, % Control","B) 4 days, Fluoxetine 10 mg/kg bid",95 % Control
same,[^3 H]-DHA Specifically Bound,"B) 4 days, Fluoxetine 10 mg/kg bid, saline 54.6 ± 3.1, * p < 0.05 vs saline",51.8 ± 1.7 fmol/mg protein
